# Experimental data taken from the supplement of paper PMC10307832.
# Legend:
# Assay in all cases: relative viability (nuclei count vs DMSO), 5 days (fraction); higher = more cells survive
# BGJ398 + Dasatinib = compound: CCN1CCN(c2ccc(Nc3cc(N(C)C(=O)Nc4c(Cl)c(OC)cc(OC)c4Cl)ncn3)cc2)CC1 [BGJ398] + Cc1nc(Nc2ncc(C(=O)Nc3c(C)cccc3Cl)s2)cc(N2CCN(CCO)CC2)n1 [Dasatinib] (partner 0.075 µM)
# Procedure, shortened: (§1)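 A single step with final 0.05% Triton X-100, 1% formaldehyde and 1 ug/ml Hoechst fixed the cells and stained nuclei 5 days after treatment. Lung cancer cell lines in 1536-well plates had been treated by pin tool the day after seeding with one drug alone or a fixed anchor-drug dose plus five library-drug doses (not always all listed) in √10 steps, and nuclei were counted on 4× images. Relative viability is the ratio of nuclei in treated wells to nuclei in vehicle wells, taken as the median of duplicate plates.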
# BGJ398 + Luminespib = compound: CCN1CCN(c2ccc(Nc3cc(N(C)C(=O)Nc4c(Cl)c(OC)cc(OC)c4Cl)ncn3)cc2)CC1 [BGJ398] + CCNC(=O)c1noc(-c2cc(C(C)C)c(O)cc2O)c1-c1ccc(CN2CCOCC2)cc1 [Luminespib] (partner 0.01 µM)
# Procedure, shortened: as §1
# [1] = compound: C1=CC2=NC=CN=C2C=C1/C=C/3\C(=O)NC(=O)S3 + Nc1ncn([C@H]2C[C@H](O)[C@@H](CO)O2)c(=O)n1 [Decitabine] (partner 2 µM)
# Procedure, shortened: as §1
# [2] = compound: C1=CC2=NC=CN=C2C=C1/C=C/3\C(=O)NC(=O)S3 + CC(C)C[C@H](NC(=O)[C@H](Cc1ccccc1)NC(=O)c1cnccn1)B(O)O [Bortezomib] (partner 0.002 µM)
# Procedure, shortened: as §1
Cell Line,relative viability (BGJ398 + Dasatinib; first compound 0.01 µM),relative viability (BGJ398 + Dasatinib; first compound 0.03162 µM),relative viability (BGJ398 + Dasatinib; first compound 0.1 µM),relative viability (BGJ398 + Dasatinib; first compound 0.3162 µM),relative viability (BGJ398 + Dasatinib; first compound 1 µM),relative viability (BGJ398 + Luminespib; first compound 0.01 µM),relative viability (BGJ398 + Luminespib; first compound 0.03162 µM),relative viability (BGJ398 + Luminespib; first compound 0.1 µM),relative viability (BGJ398 + Luminespib; first compound 0.3162 µM),relative viability (BGJ398 + Luminespib; first compound 1 µM),relative viability ([1]; first compound 0.02 µM),relative viability ([1]; first compound 0.06325 µM),relative viability ([1]; first compound 0.2 µM),relative viability ([1]; first compound 2 µM),relative viability ([2]; first compound 0.02 µM),relative viability ([2]; first compound 0.06325 µM),relative viability ([2]; first compound 0.2 µM),relative viability ([2]; first compound 0.6325 µM),relative viability ([2]; first compound 2 µM),relative viability ([1]; first compound 0.6325 µM)
NCI-H1623,0.586,0.525,0.564,0.525,0.478,0.544,0.434,0.501,0.472,0.483,,,,,,,,,,
NCI-H1648,,,,,,,,,,,0.33,0.549,0.57,0.539,,,,,,
NCI-H1703,,,,,,,,,,,,,,,0.288,0.322,0.38,0.474,0.489,
NCI-H1793,0.286,0.398,0.403,0.316,0.276,0.167,0.229,0.175,0.163,0.196,0.417,0.391,0.559,0.552,,,,,,0.447
NCI-H1944,0.166,0.21,0.23,0.198,0.203,0.687,0.714,0.787,0.722,0.716,0.364,0.386,0.432,0.462,,,,,,0.423
NCI-H2170,0.527,0.427,0.562,0.545,0.558,0.736,0.811,0.724,0.795,1.24,0.467,0.47,0.451,0.46,,,,,,0.414
NCI-H2228,0.471,0.498,0.516,0.567,0.423,0.111,0.141,0.152,0.139,0.128,,,,,0.948,0.881,1.23,1.06,0.82,
NCI-H2342,0.321,0.33,0.334,0.318,0.295,0.732,0.701,0.96,0.754,0.746,0.726,0.664,0.805,0.716,,,,,,0.69
SK-MES-1,0.421,0.33,0.433,0.426,0.418,0.8,0.784,0.843,0.799,0.844,0.353,0.403,0.437,0.331,,,,,,0.357
SW 900,0.448,0.388,0.352,0.383,0.232,0.133,0.201,0.175,0.167,0.153,0.418,0.356,0.515,0.433,,,,,,
